Measured values as given in patent US11884708B2, “Stapled peptide inhibitors of nemo as potential anti-inflammatory and anti-cancer drugs” (INSTITUT PASTEUR, priority 2015, dated 2024).
Where a SMILES comes first, the peptide text is derived from it. Bridges are numbered along the chain shown (N, C = ends). [ ]: non-standard residue; d: D form. The star is where a group is joined. Succinimide(1-Et,3-yl) = CCN1C(=O)CC(*)C1=O; R8 = C=CCCCCCC[C@@](C)(N)C(=O)O; S5 = C=CCCC[C@](C)(N)C(=O)O; code Z = not defined here; Cbz = O=C(OCc1ccccc1)*; CH2F = FC*

Tests used:
[1] = system: OCI-Ly3 DLBCL cells; assay: Protection from cell death induced by NEMO stapled inhibitor by apoptosis and necroptosis inhibitors; type: cell-based, human; conditions: OCY-Ly3 pre-treated with inhibitor, then A-UBI-SAHND306-Q313
Method: Ferrostatin-1, an inhibitor of ferroptosis (Sigma Aldrich) was used at 25 μM, the mixture of pepstatin-A and E64D (Sigma Aldrich), inhibitors of lysosomal cathepin D and cathepsin B, respectively, at 25 μM each and Cyclosporin A (Sigma Aldrich), a CypD inhibitor, at 25 μM. In all experiments, the effect of different DMSO concentration on cell viability was measured and taken into account, and fluorescence background was measured using cell free medium containing inhibitors.

[2] = system: OCI-Ly3 (ABC-DLBCL, MALT1 dependent); assay: Cell death assay (CellTiter-Blue resazurin); type: cell-based, human
Method: (§1) The CellTiter-Blue® Cell Viability kit assay purchased from Promega was used to assess the cell death induced by NEMO stapled peptides in ABC- and GCB-DLBCL cell lines. […] Cells were considered 100% death when the fluorescence intensity value was the same as the one with the medium alone or with the cells treated with the cycloheximide protein synthesis inhibitor at 25 μM (Sigma Aldrich).
(§2) For each time point measurement 100 μl of cell samples were withdrawn at different incubation times (7 h, 24 h and 48 h) and subjected to resazurin assay for one hour at 37° C. in the CO2 incubator by adding and mixing for 10 sec 20 μl of resazurin. Fluorescence measurements were performed with a TECAN infinite F500 instrument at 560 nm excitation wavelength and 590 nm emission wavelength. Viability of cells at time 0 was determined just before adding compound and all experiments were performed in duplicate.
(§3) The percentage of cell death was calculated according to the following formula: (1−((RFUobs−blank)/(RFU100% viability−blank))*100), where RFUobs corresponds to the cells viability observed in the presence of compound, RFU100% viability, the initial cells viability and blank the background fluorescence measured using the medium alone.
(§4) The EC50 value was calculated by plotting the percentage of cell death as function of the compound concentration and fitting the experimental curve with the following formula: (A*P0)/(EC50+P0), where A is the amplitude of fluorescence, P0 is the peptide concentration.
(§5) To compare the inhibition efficiency of BA-UBI-SAHND306-Q313 with IKK inhibitors (MLN120B, MedChem Express) or IKKα/β inhibitor (TPCA1, R&D systems), 25,000 DLBCL cells (OCI-Ly3) were incubated for 7 h with an increasing concentration of IKK inhibitors ranging from 0 to 50 μM, and the amount of cell death was then determined using CellTiter-Blue® Cell Viability kit assay. For the MI-2 MALT1 inhibitor (Fontan et al., 2012, Cancer cell 22, 812-824), similar experiments were carried out in MALT dependent (OCI-Ly3) and independent (HLY1) DLBCL cells using a 0-25 μM range.

[3] = target: T1, IKKα (Homo sapiens, UniProt O15111); conditions: reported; cited from earlier work
T1 sequence (O15111 1-745): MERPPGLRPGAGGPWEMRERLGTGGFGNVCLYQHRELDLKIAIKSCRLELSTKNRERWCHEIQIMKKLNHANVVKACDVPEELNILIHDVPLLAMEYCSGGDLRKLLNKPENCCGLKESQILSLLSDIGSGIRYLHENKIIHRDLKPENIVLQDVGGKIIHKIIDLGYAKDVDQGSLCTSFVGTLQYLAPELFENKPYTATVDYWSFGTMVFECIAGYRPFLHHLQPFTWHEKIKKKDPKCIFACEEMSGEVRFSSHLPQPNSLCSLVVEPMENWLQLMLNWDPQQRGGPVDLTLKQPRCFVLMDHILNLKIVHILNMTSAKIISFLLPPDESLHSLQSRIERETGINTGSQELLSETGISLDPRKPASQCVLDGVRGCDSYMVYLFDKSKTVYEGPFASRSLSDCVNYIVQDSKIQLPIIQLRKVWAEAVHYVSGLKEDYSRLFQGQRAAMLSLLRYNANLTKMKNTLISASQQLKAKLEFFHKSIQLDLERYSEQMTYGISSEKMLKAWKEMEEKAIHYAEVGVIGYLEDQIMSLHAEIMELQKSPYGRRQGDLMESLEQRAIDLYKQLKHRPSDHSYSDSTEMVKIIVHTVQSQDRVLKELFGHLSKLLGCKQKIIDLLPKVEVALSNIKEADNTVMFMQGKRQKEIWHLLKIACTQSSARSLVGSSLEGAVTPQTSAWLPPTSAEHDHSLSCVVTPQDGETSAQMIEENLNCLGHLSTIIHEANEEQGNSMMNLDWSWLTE

[4] = system: HLY1 (ABC-DLBCL, MALT1 independent); assay: Cell death assay (CellTiter-Blue resazurin); type: cell-based, human; conditions: for cell death: HLY1, 7 h; for EC50: Homo sapiens
Method: as §1, §2, §3, §4, §5

[5] = system: 70Z3-C3 cells; assay: Cellular uptake of BODIPY-labeled peptides by FACS; type: cell-based; conditions: 2 h incubation, flow cytometry
[6] = system: OCI-Ly7 (GCB-DLBCL); assay: Cell death assay (CellTiter-Blue resazurin); type: cell-based, human; conditions: OCY-Ly7, no constitutive NF-κB activation
Method: as §1, §2
as §3, with “alone. […]” for “alone.”

With `COC(=O)C[C@H](NC(=O)[C@H](C)NC(=O)[C@@H](NC(=O)OCc1ccccc1)C(C)C)C(=O)CF` [Z-VAD-fmk] (Cbz-Val-Ala-Asp(OMe)-CH2F) the “protection to cell death induced by NEMO stapled inhibitor, in words” value [1] was “did not provide any protection”.

In the case of `NC(=O)Nc1sc(-c2ccc(F)cc2)cc1C(N)=O` [TPCA-1], the cell death ([2]; OCI-Ly3, 7 h) is listed as “no significant additional effect” and the IC50 [3] is listed as 0.4 µM.

For `CN1C(=O)C(Cc2c[nH]c3ccccc23)NC1=S` (stereo not shown) [Nec1, necrostatin-1], the “protection to cell death induced by NEMO stapled inhibitor, in words” value [1] was “totally prevent”.

In the case of `CC[C@H](C)[C@H](NC(=O)[C@H](CCCCN)NC(=O)[C@@H](NC(=O)[C@H](CCC(N)=O)NC(=O)[C@H](CCCNC(=N)N)NC(=O)[C@H](CSC1CC(=O)N(CC)C1=O)NC(C)=O)[C@@H](C)CC)C(=O)N[C@@H](Cc1c[nH]c2ccccc12)C(=O)N[C@@H](Cc1ccccc1)C(=O)N[C@@H](CCC(N)=O)C(=O)N[C@@H](CC(N)=O)C(=O)N[C@@H](CCCNC(=N)N)C(=O)N[C@@H](CCCNC(=N)N)C(=O)N[C@@H](CCSC)C(=O)N[C@@H](CCCCN)C(=O)N[C@@H](Cc1c[nH]c2ccccc12)C(=O)N[C@@H](CCCCN)C(=O)N[C@@H](CCCCN)C(=O)N[C@@H](CC(C)C)C(=O)N[C@@H](CCCCN)C(=O)N[C@@H](C)C(=O)N[C@@H](CCC(N)=O)C(=O)N[C@@H](C)C(=O)N[C@]1(C)CCCCCCC=CCCC[C@@](C)(C(=O)N[C@@H](C)C(=O)N[C@@H](CCC(=O)O)C(=O)N[C@@H](CCCNC(=N)N)C(=O)N[C@@H](Cc2c[nH]cn2)C(=O)N[C@@H](C)C(=O)N[C@@H](CCCNC(=N)N)C(=O)N[C@@H](CCC(=O)O)C(=O)N[C@@H](CCCCN)C(N)=O)NC(=O)[C@H](Cc2ccccc2)NC(=O)[C@H](CCCNC(=N)N)NC(=O)[C@H](C)NC(=O)[C@H](CCCCN)NC(=O)[C@H](Cc2ccc(O)cc2)NC(=O)[C@H]([C@@H](C)CC)NC1=O` (stereo partly shown) [A-UBI-SAHN D306-Q313] (Ac-C(Succinimide(1-Et,3-yl))RQIKIWFQNRRMKWKKLKAQA[R8]IYKARF[S5]AERHAREK-NH2; staple 23-30), the “times more potent than ML120B IKKβ inhibitor” value ([2]; OCI-Ly3) is reported as “about 50 times”, the EC50 ([2]; OCI-Ly3, 7 h) is reported as 2.6 ± 0.5 µM and the cell death ([2]; OCI-Ly3, 7 h) is reported as 100%. For the same molecule, the “more potent than ML120B” value ([4]; HLY1) was 70 ×, the cell death [4] was 100% and the “intracellular delivery at 4° C. lower than at 37° C.” value [5] was 58%. The “cell death, in words” value [6] was “no cell death”.

With `COc1c(Cl)cc2c([nH]c3cnccc32)c1NC(=O)c1cccnc1C` [MLN120B] the EC50 ([2]; Homo sapiens, OCI-Ly3, 48 h) was 125 ± 10 µM, the cell death ([2]; OCI-Ly3, 48 h) was 52% and the cell death [4] was “No cell death”. It also gave an EC50 ([4]; HLY1, 24 h) of 70 ± 2 µM and an EC50 ([4]; HLY1, 48 h) of 78 ± 2 µM.

For `COCCOc1nc(-c2ccc(Cl)c(Cl)c2)n(-c2ccc(NC(=O)CCl)cc2)n1` [MI-2], the EC50 ([2]; OCI-Ly3, 7 h) was 2.5 ± 0.05 µM and the cell death [4] was “more resistant”.

For `COc1nccnc1NS(=O)(=O)c1ccc(NC(=O)/C=C/c2ccc([N+](=O)[O-])s2)cc1` [NSA, necrosulfonamide], the “protection to cell death induced by NEMO stapled inhibitor, in words” value [1] was “significantly rescued”.

In the case of “Z-Val-Arg-Pro-Arg-fluoromethylketone ({code Z}-VRPR-CH2F; reading uncertain; also: printed as Z-Val-Arg-Pro-Arg-fluoromethylketone) [Z-VRPR-fmk]”, the cell death ([2]; OCI-Ly3, 48 h) is reported as “very little cell death” and the “cell death, in words” value ([4]; HLY1, for at least 48 h) is reported as “did not induce any cell death”.

In the case of `CC(C)S(=O)(=O)c1ccc2nccc(Nc3ccc4scnc4c3)c2c1` [GSK872], the “protection to cell death induced by NEMO stapled inhibitor, in words” value [1] is reported as “significantly rescued”.
